Experimental data taken from US7507727B2, “Substituted quinobenzoxazine analogs and methods of using thereof” (Cylene Pharmaceuticals, Inc., priority 2003, dated 2009).
“And” between values parts separate entries of the source, which are not always exact repeats. Equal entries are not always repeated. “Also recorded” adds a separate entry of the source. Where two headings read alike, the source gives them in different places.

Tests used:
[1] = tested on: HCT-116 xenograft; assay: HCT-116 colorectal cancer xenograft model; assay type: in vivo; conditions: HCT-116; 10, 15 and 20 mg/kg; FIG. 8
Description: Two xenograft models for inoculation were harvested and diluted to a concentration of 50×10^6 cells/ml or 100×10^6 cells/ml. Four to six week old nude mice were injected with 0.1 ml of the cell suspension containing between 5×10^6 and 10×10^6 cells. When tumors are of a suitable size compound dosing is commenced. Tumor sizes are measured throughout the treatment period with calipers and body weights also measured.
(§1) CX-3543 was tested against a number of cancer xenograft models to determine the in vivo efficacy. HCT-116 and PC-3 tumor-bearing nu/nu or MiaPaCa tumor-bearing SCID mice were administered reference and testing compounds on schedules indicated in figure legends. Tumor measurements were taken with calipers every other day or twice a week starting from the first day of dosing and body weights were measured at the same time points. Tumor volumes were calculated from the standard formula, W^2×L/2. c-MYC mRNA expression was measured with QPCR from all tumor samples following the final dose. 18S ribosomal RNA was used as a housekeeper and also quantified with QPCR.

[2] = tested on: topoisomerase II; assay: Topoisomerase-II poison assay; assay type: biochemical
Description: FIG. 7 illustrates data from a toposiomerase-II poison assay, using VP-16 (Etoposide) as a control Topoisomerase-II poison.

[3] = tested on: Salmonella typhimurium (TA97a, TA98, TA100, TA102, TA1535); conditions: for FI / TA100 colony count (Rep 1-3) / TA100 colony count, Mean: dose range
Description: This Mutagenicity Assessment (Ames Assay) evaluated the potential of the test article extracts to induce histidine (his) reversion in S. typhimurium (his− to his+) or tryptophan (trp) reversion in E. coli (trp− to trp+) caused by base changes or frameshift mutations in the genome of tester organisms.
This plate incorporation assay was conducted with five strains of Salmonella typhimurium (TA97a, TA98, TA100, TA102, and TA1535) and one strain of Escherichia coli (WP2-uvrA^−) in the presence and absence of an exogenous mammalian activation system (S9). The test article was dissolved in 5% dextrose. A series of dilutions were then prepared in saline just prior to testing. A Range Finding Study was conducted for this assay to determine the appropriate doses for definitive mutagenicity assessment.
A stock solution of test article was prepared at 20.0 mg/mL as follows: 1.0 g test article was added to 15.0 mL of 0.1 HCl for 1 minute. The test article was stirred for 15 minutes at room temperature. Next 33.0 mL of deionized water was added and allowed to stir for 30 minutes. […] Lower doses were prepared by dilution in 5% dextrose from this stock immediately prior to use. To minimize any change of degradation, the test article solutions were kept on ice after preparation and until just prior to dosing procedures. The test article was administered in vitro, through a solvent compatible with the test system.
This assay has historically been used to detect mutation in a gene of a histidine requiring strain to produce a histidine independent strain or concordantly, to detect mutation in a gene of a tryptophan requiring strain to produce a tryptophan independent strain.
S. typhimurium strain TA1535 and E. coli strain Wp2-uvrA^− were received from American Type Culture Collection, Manassas, Va. […] All working stocks of test strains will be confirmed for genotypic markers and acceptable reversion rates.
Master plates of the tester strains were prepared from frozen working stocks. To create working cultures for each bacterial strain used in the assay, a single colony was transferred from the master plate into Oxoid nutrient broth and incubated, with shaking, at 37±2° C. until an optical density (at 650 nm) of 0.6-1.6 was reached. This overnight culture was used for the mutagenicity test and for genotypic confirmation. Genotype tests were performed.
For both the dose range and mutagenicity test, a top agar consisting of 0.6% Difco agar in 0.5% NaCl was melted and a solution of 0.5 mM L-histidine/0.5 mM biotin or 0.5 mM L-tryptophan was added to the melted top agar at a ratio of 10 mL per 100 mL agar, as required. The supplemented agar was aliquotted, 2 mL per tube and held at 45-47° C. To prepare the top agar for treatment, 0.1 mL of the test article or control, 0.1 mL of the bacterial culture and 0.5 mL of phosphate buffered saline were added to the molten agar. […] Metabolic activation was provided by adding 0.5 mL of the S9 mix in place of the PBS. […] All plates were counted using an automatic image analysis system. Negative control and test article treated plates were also examined for the presence of a bacterial lawn.
The in vitro metabolic activation system used in this assay was comprised of Sprague Dawley rat liver enzymes and a cofactor pool. […] Immediately prior to use, the S9 was thawed and mixed with a cofactor pool to contain 5% S9, 5 mM glucose 6-phosphate, 4 mM β-nicotine-adenine dinucleotide phosphate, 8 mM MgCl2 and 33 mM KCl in a 200 mM phosphate buffer at pH 7.4. The S9 was purchased from Moltox (Boone, N.C.) and maintained frozen at less than −70° C.
For the definitive assay, three dose levels were chosen ([…], and 5.0 mg/mL). This was equivalent to 2.0, 1.0, and 0.5 mg/plate. All treatments, including negative and positive control, were plated in triplicate against test strains TA97a, TA98, TA100, TA102, TA1535, and WP2-uvrA^− in the presence and absence of metabolic activation.

[4] = tested on: MiaPaCa xenograft; assay: MiaPaCa pancreatic cancer xenograft model; assay type: in vivo, mice; conditions: 5, 10 and 15 mg/kg i.p. q.o.d., FIG. 10
Description: as §1

[5] = TA100, with S9 activation, 0.125 mg/plate
[6] = TA100, with S9 activation, 0.25 mg/plate
[7] = TA100, with S9 activation, 0.5 mg/plate
[8] = TA100, with S9 activation, 1.0 mg/plate
[9] = TA100, with S9 activation, 2.0 mg/plate
[10] = TA100, without S9 activation, 0.125 mg/plate
[11] = TA100, without S9 activation, 0.25 mg/plate
[12] = TA100, without S9 activation, 0.5 mg/plate
[13] = TA100, without S9 activation, 1.0 mg/plate
[14] = TA100, without S9 activation, 2.0 mg/plate

CN1CCCC1CCNC(=O)c1cn2c3c(c(N4CCC(c5cnccn5)C4)c(F)cc3c1=O)Oc1cc3ccccc3cc1-2 (centres unmarked) [CX-3543]
tumor growth inhibition [1]: inhibits tumor growth; also recorded: significant tumor growth inhibition | inhibitory activity against topoisomerase II [2]: not to be an inhibitor or poison | concentration up to which no topoisomerase dependent strand breaks were induced ([2]; supercoiled DNA, FIG. 7): > 100 µM | mutagenicity (reversion rates) ([3]; S. typhimurium, with and without S9): non-mutagenic | FI [3, 5]: 1.5 | TA100 colony count (Rep 1-3) [3, 5]: 175 and 177 | TA100 colony count, Mean [3, 5]: 175.7 | FI [3, 6]: 1.5 | TA100 colony count (Rep 1-3) [3, 6]: 185 and 177 and 189 | TA100 colony count, Mean [3, 6]: 183.7 | FI [3, 7]: 1.6 | TA100 colony count (Rep 1-3) [3, 7]: 182 and 190 and 193 | TA100 colony count, Mean [3, 7]: 188.3 | FI [3, 8]: 1.4 | TA100 colony count (Rep 1-3) [3, 8]: 175 and 147 and 168 | TA100 colony count, Mean [3, 8]: 163.3 | FI [3, 9]: 1.1 | TA100 colony count (Rep 1-3) [3, 9]: 111 and 131 and 137 | TA100 colony count, Mean [3, 9]: 126.3 | FI [3, 10]: 1.1 | TA100 colony count (Rep 1-3) [3, 10]: 153 and 144 and 135 | TA100 colony count, Mean [3, 10]: 144.0 | FI [3, 11]: 1.1 | TA100 colony count (Rep 1-3) [3, 11]: 154 and 148 and 146 | TA100 colony count, Mean [3, 11]: 149.3 | FI [3, 12]: 1.1 | TA100 colony count (Rep 1-3) [3, 12]: 161 and 154 and 137 | TA100 colony count, Mean [3, 12]: 150.7 | FI [3, 13]: 1.0 | TA100 colony count (Rep 1-3) [3, 13]: 147 and 120 and 134 | TA100 colony count, Mean [3, 13]: 133.7 | FI [3, 14]: 0.9 | TA100 colony count (Rep 1-3) [3, 14]: 126 and 117 and 122 | TA100 colony count, Mean [3, 14]: 121.7 | tumor growth inhibition [4]: inhibits tumor growth; also recorded: significant tumor growth inhibition
